Usually pKi stands for the negative decadic logarithm of the Ki, by convention in mol/L. Low readings indicate a large Ki, high ones a small Ki. Usually fraction remaining stands for what is left of the initial amount, in per cent. A higher fraction remaining goes with greater stability.

Consider 4 compounds from ChEMBL document CHEMBL5042528, “Optimization of 2-Amino-4,6-diarylpyrimidine-5-carbonitriles as Potent and Selective A1 Antagonists” (J Med Chem, 2022).

pKi: −log10 of the molar value.

Data set [1] has as its target T1, Adenosine receptor A2a (Homo sapiens, UniProt P29274).
The target of data set [2] is T2, Adenosine receptor A1 (Homo sapiens, UniProt P30542).
T2 sequence (P30542 whole entry): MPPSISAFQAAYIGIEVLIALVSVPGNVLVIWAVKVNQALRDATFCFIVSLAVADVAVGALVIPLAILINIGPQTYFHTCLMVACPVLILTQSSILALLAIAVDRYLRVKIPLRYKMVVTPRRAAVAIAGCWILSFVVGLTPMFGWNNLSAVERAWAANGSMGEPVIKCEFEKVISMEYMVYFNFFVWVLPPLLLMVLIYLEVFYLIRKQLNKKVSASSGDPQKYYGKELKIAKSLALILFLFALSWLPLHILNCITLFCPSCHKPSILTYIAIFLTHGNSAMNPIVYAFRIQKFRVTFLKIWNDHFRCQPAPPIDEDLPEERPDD
Nature of the data set: Displacement of [3H]DPCPX from A1 adenosine receptor (unknown origin) expressed in CHO cell membrane incubated for 60 mins at room temperature by NXT microplate scintillation counter analysis. It is filed as cell membranes. Background: Displacement assays read how much labelled ligand stays bound in the presence of the test substance.

Data set [3] has as its target T1, Adenosine receptor A2a. This is another data set of the same source.
For data set [4], the target named is T2, Adenosine receptor A1.
A further data set can be described thus: in vitro. As to conditions: human, liver microsomes.

T1 sequence (P29274 whole entry): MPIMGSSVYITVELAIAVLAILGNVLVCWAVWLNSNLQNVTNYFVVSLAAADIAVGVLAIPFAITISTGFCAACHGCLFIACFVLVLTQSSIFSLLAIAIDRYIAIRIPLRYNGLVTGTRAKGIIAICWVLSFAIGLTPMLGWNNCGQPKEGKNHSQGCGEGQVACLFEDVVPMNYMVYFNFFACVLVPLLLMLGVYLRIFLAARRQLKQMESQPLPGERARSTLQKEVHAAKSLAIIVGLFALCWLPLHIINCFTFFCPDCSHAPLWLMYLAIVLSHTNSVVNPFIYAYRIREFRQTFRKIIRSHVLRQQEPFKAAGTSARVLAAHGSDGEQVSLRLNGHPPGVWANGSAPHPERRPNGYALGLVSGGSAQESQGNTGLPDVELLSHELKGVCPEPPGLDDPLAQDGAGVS
Description for in vitro: Stability of the compound in human liver microsome assessed as compound remaining measured after 60 mins by UPLC-MS/MS analysis

At Adenosine receptor A2a [1], `N#Cc1c(-c2ccccc2)nc(NC(=O)C2CCCC2)nc1-c1ccc2c(c1)OCO2` gave a pKi of 6.80.
`Nc1nc(-c2ccccc2)c2c(n1)-c1ccccc1C2=O` showed a pKi at Adenosine receptor A1 [2] of 10.00.
Turning to `N#Cc1c(-c2ccccc2)nc(Nc2ccccc2)nc1-c1cccc(O)c1`, the pKi on Adenosine receptor A2a [3] was 7.15; at Adenosine receptor A1 [4] it was 7.74.
`C[C@]12CC[C@H]3[C@@H](CCC4=CC(=O)CC[C@@]43C)[C@@H]1CC[C@@H]2O` [TESTOSTERONE] returned a fraction remaining at 1 h in the data set “in vitro” of 3.7%.
